Source: patent US20240246966A1, “NEW PYRAZOLO[1,5-a] PYRIMIDINE DERIVATIVES AS SIGMA LIGANDS” (ACONDICIONAMIENTO TARRASENSE, priority 2021, published 2024)

Legend:
Human σ1 Receptor = biological target: T1, Human σ1 Receptor (Homo sapiens, UniProt Q99720); assay: Human σ1 receptor radioligand assay ([3H](+)-pentazocine, transfected HEK-293 membranes); conditions: human σ1, [3H](+)-pentazocine 5 nM, binding expressed as Ki, read-out: Binding σ-1
T1 construct: expressed in transfected cells; host or cells: HEK-293
Protocol: Human σ1 Receptor Radioligand Assay
Transfected HEK-293 membranes (7 μg) were incubated with 5 nM of [^3H](+)-pentazocine in assay buffer containing Tris-HCl 50 mM at pH 8. NBS (non-specific binding) was measured by adding 10 μM haloperidol. The binding of the test compound was measured at either one concentration (% inhibition at 1 or 10 μM) or five different concentrations to determine affinity values (Ki). Plates were incubated at 37° C. for 120 minutes. After the incubation period, the reaction mix was then transferred to MultiScreen HTS, FC plates (Millipore), filtered and plates were washed 3 times with ice-cold 10 mM Tris-HCL (pH 7.4). Filters were dried and counted at approximately 40% efficiency in a MicroBeta scintillation counter (Perkin-Elmer) using EcoScint liquid scintillation cocktail.

Human σ2/TMEM97 receptor = biological target: T2, Human σ2/TMEM97 receptor (Homo sapiens, UniProt Q5BJF2); assay: Binding assay to human σ2/TMEM97 receptor ([3H]-DTG, transfected HEK-293 membranes); conditions: human σ2/TMEM97, [3H]-DTG 10 nM, binding expressed as Ki, read-out: Binding σ-2
T2 construct: expressed in transfected cells; host or cells: HEK-293
Protocol: Binding Assay to Human ρ2/TMEM97 Receptor
Transfected HEK-293 membranes (15 μg) were incubated with 10 nM [^3H]-1,3-Di-o-tolylguanidine ( DTG) in assay buffer containing Tris-HCl 50 mM at pH 8.0. NSB (non-specific binding) was measured by adding 10 μM haloperidol. The binding of the test compound was measured at either one concentration (% inhibition at 1 or 10 μM) or five different concentrations to determine affinity values (Ki). Plates were incubated at 25° C. for 120 minutes. After the incubation period, the reaction mix was transferred to MultiScreen HTS, FC plates (Millipore), filtered and washed 3 times with ice-cold 10 mM Tris-HCL (pH 8.0). Filters were dried and counted at approximately 40% efficiency in a MicroBeta scintillation counter (Perkin-Elmer) using EcoScint liquid scintillation cocktail.

sigma-2 (σ2) site = sigma-2 (σ2) site (Homo sapiens, UniProt Q5BJF2); conditions: background statement; cited from earlier work
[1] = tested on: mechanical hypersensitivity in SNI mice; conditions: spared nerve injury (SNI) mice model of neuropathic pain; cited from earlier work

T2 sequence (Q5BJF2 whole entry): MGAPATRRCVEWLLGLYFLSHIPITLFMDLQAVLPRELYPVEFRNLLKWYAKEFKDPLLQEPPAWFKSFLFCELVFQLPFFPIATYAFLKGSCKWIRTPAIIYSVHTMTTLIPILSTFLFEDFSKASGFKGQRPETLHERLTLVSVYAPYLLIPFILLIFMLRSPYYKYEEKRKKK
T1 sequence (Q99720 whole entry): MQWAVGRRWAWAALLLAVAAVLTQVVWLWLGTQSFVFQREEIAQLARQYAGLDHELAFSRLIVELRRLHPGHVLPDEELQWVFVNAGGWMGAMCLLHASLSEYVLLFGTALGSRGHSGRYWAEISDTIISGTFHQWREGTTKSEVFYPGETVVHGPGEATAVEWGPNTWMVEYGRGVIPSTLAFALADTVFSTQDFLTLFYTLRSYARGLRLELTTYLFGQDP
sigma-2 (σ2) site, sequence (Q5BJF2 whole entry): as the sequence (Q5BJF2 whole entry) above

Molecule | Ki (Human σ1 Receptor) [nM] | Ki (Human σ2/TMEM97 receptor) [nM] | affinity for the sigma-2 (σ2) site (sigma-2 (σ2) site) | mechanical hypersensitivity [1]
FC(F)(F)c1cc(-c2cnn3cc(CN4CCC5(CC4)COC5)ccc23)ccn1 [Example 57, 7-((3-(2-(Trifluoromethyl)pyridin-4-yl)pyrazolo[1,5-a]pyridin-6-yl)methyl)-2-oxa-7-azaspiro[3.5]nonane] | < 100 | 100 to 500 | – | –
FC(F)(F)c1cc(-n2ncc3cc(CN4CCC5(CC4)COC5)cnc32)ccn1 [Example 58, 7-((1-(2-(Trifluoromethyl)pyridin-4-yl)-1H-pyrazolo[3,4-b]pyridin-5-yl)methyl)-2-oxa-7-azaspiro[3.5]nonane] | < 100 | 100 to 500 | – | –
OCC1(CO)CCN(Cc2cnc3c(-c4ccnc(C(F)(F)F)c4)cnn3c2)CC1 [Example 59, (1-((3-(2-(Trifluoromethyl)pyridin-4-yl)pyrazolo[1,5-a]pyrimidin-6-yl)methyl)piperidine-4,4-diyl)dimethanol] | < 100 | > 1000 | – | –
OCC1(CCl)CCN(Cc2cnc3c(-c4ccnc(C(F)(F)F)c4)cnn3c2)CC1 [Example 60, (4-(Chloromethyl)-1-((3-(2-(trifluoromethyl)pyridin-4-yl)pyrazolo[1,5-a]pyrimidin-6-yl)methyl)piperidin-4-yl)methanol] | < 100 | 100 to 500 | – | –
(+)-SKF-10047 | – | – | micromolar affinity | –
UKH-1114 | – | – | – | relieved mechanical hypersensitivity
